Assay results as given in patent EP4778922A1, “BICYCLIC COMPOUND, AND PREPARATION METHOD THEREFOR AND PHARMACEUTICAL USE THEREOF” (Shanghai Jeyou Pharmaceutical Co., Ltd., priority 2023, dated 2025).

Key:
LNCaP cells = experiment: Cell proliferation inhibition assay in LNCaP cells (0.2 nM DHT, CellTiter-Glo, 7 days); format: cell-based, human; conditions: Homo sapiens, 168 h
Description: • 1. The human prostate cancer cell lines 22RV1 and LNCaP were purchased from ATCC. […] The cell concentration was adjusted to an appropriate concentration (determined based on the results of cell density optimization experiments), and the cells were seeded into a 96-well plate. A 100 µL cell suspension was added, resulting in 3000 cells per well. […] On the second day, for 22Rv1 cells, test compounds at different concentrations were added, and the cells were incubated at 37°C in a 5% CO2 incubator for 7 days; for LNCaP cells, test compounds at different concentrations were added first, and after 1 hour of treatment, 0.2 nM DHT was added. The cells were then incubated at 37°C in a 5% CO2 incubator for 7 days. • 4. After the incubation period, a volume of CellTiter-Glo detection reagent equal to the volume of the culture medium was added to each well. The plate was shaken and mixed thoroughly for 5 minutes, then incubated at room temperature for 10 minutes. Readings were taken using a PerkinElmer EnVision microplate reader. • 5.
The IC50 curve was fitted and the IC50 value was calculated using the software GraphPad Prism 8 with the calculation formula XY-analysis/Nonlinear regression (curve fit)/Dose response-Inhibition/log (inhibitor) vs. response-Variable slope (four parameters).

22RV1 cells = experiment: Cell proliferation inhibition assay in 22RV1 cells (CellTiter-Glo, 7 days); format: cell-based, human; conditions: Homo sapiens
Outline: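 LNCaP and 22RV1 human prostate cancer cells, 3000 per well, exposed to graded compound for 7 days at 37°C, 5% CO2; LNCaP got 0.2 nM DHT 1 h after compound. Viability by CellTiter-Glo luminescence; IC50 from four-parameter variable-slope fit.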

Row | Structure (SMILES) | IC50 (LNCaP cells) [nM] | IC50 (22RV1 cells; 168 h) [nM] | IC50 (LNCaP cells; LNCaP) [nM] | IC50 (22RV1 cells; 22Rv1, 168 h) [nM]
1 | CC(C)(c1cnc(-c2ccc(OCc3ccnc(N4CC(S(C)(=O)=O)C4)n3)cc2)nc1)c1cc(Cl)c(OCCCl)c(C#N)c1 [Compound 446] | 140 | 310 | – | –
2 | CC(C)(c1ccc(-c2cnc(OCC34CC(c5cnc(P(C)(C)=O)nc5)(C3)C4)cn2)cc1)c1cc(Cl)c(OCCCl)c(C#N)c1 [Compound 322] | 120 | 1050 | – | –
3 | CC(C)(c1ccc(-c2cnc(OCc3cnc(-c4cnc(P(C)(C)=O)nc4)cn3)nc2)cc1)c1cc(Cl)c(OCCCl)c(C#N)c1 [Compound 402] | 99 | 660 | – | –
4 | CC(C)(c1ccc(-c2ccc(OCc3ccc(-c4cnc(P(C)(C)=O)nc4)cn3)nc2)cc1)c1cc(Cl)c(OCCCl)c(C#N)c1 [Compound 397] | 110 | 950 | – | –
5 | CC(C)(c1ccc(-c2ccc(OCc3ccc(-c4cnc(N5CC(S(C)(=O)=O)C5)nc4)cc3)c(C#N)c2)cc1)c1cc(Cl)c(OCCCl)c(C#N)c1 [Compound 382] | 410 | 860 | – | –
6 | CC(=O)c1nccc(COc2ccc(-c3ccc(C(C)(C)c4cc(Cl)c(OCCCl)c(C#N)c4)cc3)cc2)n1 [Compound 440] | 570 | 990 | – | –
7 | CC(C)(c1ccc(-c2cnc(COc3ccnc(P(C)(C)=O)n3)nc2)cc1)c1cc(Cl)c(OCCCl)c(C#N)c1 [Compound 385] | 220 | 570 | – | –
8 | CC(C)(c1ccc(-c2ccc(OCCOc3nccc(N4CC5(COC5)C4)n3)cc2)cc1)c1cc(Cl)c(OCCCl)c(C#N)c1 [Compound 203] | – | – | 440 | 47
9 | CC(C)(c1ccc(-c2cnc(OCc3ccnc(N4CC5(CCS(=N)(=O)CC5)C4)n3)cn2)cc1)c1cc(Cl)c(OCCCl)c(C#N)c1 [Compound 377] | 100 | 380 | – | –
10 | CC(C)(c1ccc(-c2ccc3cc(OCc4ccnc(P(C)(C)=O)n4)ccc3c2)cc1)c1cc(Cl)c(OCCCl)c(C#N)c1 [Compound 442] | 160 | 380 | – | –
11 | CNS(=O)(=O)C1CN(c2nccc(COc3cnc(-c4ccc(C(C)(C)c5cc(Cl)c(OCCCl)c(C#N)c5)cc4)cn3)n2)C1 [Compound 462] | 42 | 160 | – | –
12 | CC(C)(c1ccc(-c2ccc(OCc3ccnc(N4CC(N=S(C)(C)=O)C4)n3)cc2)cc1)c1cc(Cl)c(OCCCl)c(C#N)c1 [Compound 195] | 460 | 38 | – | –
13 | CC(C)(O)CN1CCS(=O)(=Nc2nccc(COc3ccc(-c4ccc(C(C)(C)c5cc(Cl)c(OCCCl)c(C#N)c5)cc4)cc3)n2)CC1 [Compound 254] | 440 | 160 | – | –
14 | CC(C)(c1ccc(-c2cnc(OCC34CC(c5cnc(P(C)(C)=O)nc5)(C3)C4)nc2)cc1)c1cc(Cl)c(OCCCl)c(C#N)c1 [Compound 421] | 600 | 350 | – | –
15 | CC(C)(c1ccc(-c2ccc(OCc3ccc(-c4cnc(P(C)(C)=O)nc4)nc3)nc2)cc1)c1cc(Cl)c(OCCCl)c(C#N)c1 [Compound 398] | 120 | 510 | – | –
16 | CC(C)(c1ccc(-c2ccc(OCc3ccnc(N4CC(S(=N)(=O)C5CC5)C4)n3)nc2)cc1)c1cc(Cl)c(OCCCl)c(C#N)c1 (stereo not drawn) [Compound 356] | 410 | 790 | – | –
17 | CC(C)(c1ccc(-c2ccc(OCc3ccnc(N=S4(=O)CCNCC4)n3)cc2)cc1)c1cc(Cl)c(OCCCl)c(C#N)c1 [Compound 108] | 300 | 60 | – | –
18 | CC(C)(c1ccc(-c2ccc(OCC3CCC(CN4CC5(COC5)C4)CC3)cc2)cc1)c1cc(Cl)c(OCCCl)c(C#N)c1 (stereo not drawn) [Compound 333] | 680 | 320 | – | –
19 | CC(C)(c1ccc(-c2ccc(OCc3ccc(-c4ccc(P(C)(C)=O)nn4)cc3)cc2)cc1)c1cc(Cl)c(OCCCl)c(C#N)c1 [Compound 394] | 76 | 110 | – | –
20 | CC(C)(c1ccc(-c2ccc(OCc3ccc(-c4cnc(P(C)(C)=O)cn4)cc3)cc2)cc1)c1cc(Cl)c(OCCCl)c(C#N)c1 [Compound 419] | 130 | 130 | – | –
21 | CC(C)(c1ccc(-c2ccc(OCc3ccc(-c4cnc(N5CC6(C5)CS(=N)(=O)C6)nc4)cc3)cc2)cc1)c1cc(Cl)c(OCCCl)c(C#N)c1 [Compound 317] | 270 | 1040 | – | –

Row | Structure (SMILES) | IC50 (LNCaP cells) [nM] | IC50 (22RV1 cells; 168 h) [nM] | IC50 (LNCaP cells; LNCaP) [nM] | IC50 (22RV1 cells; 22Rv1, 168 h) [nM]
22 | CC(C)(c1ccc(-c2cnc(COc3ccnc(P(C)(C)=O)n3)cn2)cc1)c1cc(Cl)c(OCCCl)c(C#N)c1 [Compound 432] | 660 | 840 | – | –
23 | CC(C)(c1ccc(-c2cnc(OCc3ccnc(N4CC(S(C)(=O)=O)C4)n3)nc2)cc1)c1cc(Cl)c(OCCCl)c(C#N)c1 [Compound 342] | 500 | 860 | – | –
24 | CC(C)(c1ccc(-c2ccc(OCC34CC(c5cnc(P(C)(C)=O)nc5)(C3)C4)nc2)cc1)c1cc(Cl)c(OCCCl)c(C#N)c1 [Compound 445] | 80 | 130 | – | –
25 | CC(C)(c1ccc(-c2ncc(OCc3ccc(-c4cnc(P(C)(C)=O)cn4)cc3)cn2)cc1)c1cc(Cl)c(OCCCl)c(C#N)c1 [Compound 424] | 310 | 660 | – | –
26 | CC(C)(c1ccc(-c2cnc(OCc3ccc(-c4cnc(P(C)(C)=O)nc4)nc3)cn2)cc1)c1cc(Cl)c(OCCCl)c(C#N)c1 [Compound 373] | 250 | 640 | – | –
27 | CC(C)(c1ccc(-c2ccc(OCc3ccnc(N=S4(=O)CCN(CC(O)c5ccccc5)CC4)n3)cc2)cc1)c1cc(Cl)c(OCCCl)c(C#N)c1 (stereo not drawn) [Compound 435] | 650 | 180 | – | –
28 | CC(C)(c1ccc(-c2ccc(OCc3ccnc(N=S4(=O)CCC(F)(F)CC4)n3)cc2)cc1)c1cc(Cl)c(OCCCl)c(C#N)c1 [Compound 288] | 550 | 74 | – | –
29 | CC(C)(c1ccc(-c2ccc(OCc3ccnc(N4CC(S(C)(=N)=O)C4)n3)nc2)cc1)c1cc(Cl)c(OCCCl)c(C#N)c1 (stereo not drawn) [Compound 357] | – | – | 440 | 830
30 | CC(C)(c1ccc(-c2ccc(OCc3ccnc(N4CC5(COC5)C4)n3)nc2)cc1)c1cc(Cl)c(OCCCl)c(C#N)c1 [Compound 209] | 420 | 290 | – | –
31 | CC(C)(c1ccc(-c2cnc(OCc3ccnc(N4CCC5(CC4)CS(=N)(=O)C5)n3)cn2)cc1)c1cc(Cl)c(OCCCl)c(C#N)c1 [Compound 444] | 130 | 120 | – | –
32 | CC(C)(c1ccc(-c2ccc(OCc3ccnc(N=S4(=O)CCN(CC(F)F)CC4)n3)cn2)cc1)c1cc(Cl)c(OCCCl)c(C#N)c1 [Compound 179] | 530 | 410 | – | –
33 | CC(C)(c1ccc(-c2ccc(OCc3ccnc(N=S4(=O)CCN(CCO)CC4)n3)cc2)cc1)c1cc(Cl)c(OCCCl)c(C#N)c1 [Compound 164] | 480 | 45 | – | –
34 | CC(C)(c1ccc(-c2ccc(COc3ccnc(P(C)(C)=O)n3)nc2)cc1)c1cc(Cl)c(OCCCl)c(C#N)c1 [Compound 427] | 830 | – | – | –
35 | CC(C)(c1ccc(-c2ccc(OCc3ccnc(N4CC5(C4)CS(=N)(=O)C5)n3)nc2)cc1)c1cc(Cl)c(OCCCl)c(C#N)c1 [Compound 400] | 690 | – | – | –
36 | CC(C)(c1ccc(N2CCCc3cc(OCc4ccnc(P(C)(C)=O)n4)ccc32)cc1)c1cc(Cl)c(OCCCl)c(C#N)c1 [Compound 457] | 970 | – | – | –
37 | CC(C)(c1ccc(-c2ccc(OCc3ccnc(N4CC(S(C)(=N)=O)C4)n3)cc2)nc1)c1cc(Cl)c(OCCCl)c(C#N)c1 (stereo not drawn) [Compound 461] | 580 | – | – | –
38 | CC(C)(c1ccc(-c2ccc(OCc3cnc(-c4cnc(P(C)(C)=O)nc4)cn3)cc2)cc1)c1cc(Cl)c(OCCCl)c(C#N)c1 [Compound 408] | 180 | – | – | –
39 | CC(=O)c1nccc(COc2cnc(-c3ccc(C(C)(C)c4cc(Cl)c(OCCCl)c(C#N)c4)cc3)cn2)n1 [Compound 441] | 950 | – | – | –
40 | CC(C)(c1ccc(-c2ncc(OCc3ccc(-c4ccc(P(C)(C)=O)nn4)cc3)cn2)cc1)c1cc(Cl)c(OCCCl)c(C#N)c1 [Compound 455] | 160 | – | – | –
41 | CC(C)(c1ccc(-c2ccc(OCc3ccnc(P(C)(C)=O)n3)cc2)nc1)c1cc(Cl)c(OCCCl)c(C#N)c1 [Compound 459] | – | – | 990 | –
42 | CC(C)(c1ccc(-c2ncc(OCc3ccc(-c4cnc(P(C)(C)=O)nc4)nc3)cn2)cc1)c1cc(Cl)c(OCCCl)c(C#N)c1 [Compound 426] | 940 | – | – | –
